Source: PubChem BioAssay AID489006 (Sanford-Burnham Center for Chemical Genomics, 2010)
The source made the active and inactive calls. No rule for the calls is given here.

Each molecule was assayed on Jurkat NF-kB reporter, luminescence (assay: NF-kB reporter inhibition in Jurkat cells, dose response, selectivity assay for B-cell receptor NF-kB inhibitor project, cell-based, luminescence (AID 489006)).

| Compound | IC50 |
| --- | --- |
| COc1ccccc1/C=C1\SC(=S)N(CCC(=O)Nc2cc(C)on2)C1=O | 54.7 µM (inactive) |
| O=S(=O)(c1cnc(Cl)c(Cl)c1)N1CCCc2ccccc21 | 18.6 µM |
| CCc1ccc(-c2nc(CSCC(=O)NC3CC3)c(C)o2)cc1 | 38.5 µM (inactive) |
| Cn1c(=O)cc(Nc2ccccc2)c2c(=O)n(-c3ccccc3)c(=O)n(-c3ccccc3)c21 | 71.9 µM (inactive) |

Next, values leading:

| IC50 | Compound |
| --- | --- |
| > 80 µM (inactive) | CCC(=O)N1c2ccccc2C(N(C(C)=O)c2ccccc2)CC1C (centres undefined) |
| > 80 µM (inactive) | COc1ccc(-c2noc(N3CCC(C(=O)Nc4ccc(F)cc4F)CC3)n2)cc1 |
| 6.75 µM | O=C(O)CCSc1nc2ccccc2s1 |
| 9.4 µM | Oc1[nH]c2ccccc2c1N=Nc1nc(Nc2ccccc2)nc(N2CCOCC2)n1 |
| 23 µM (inactive) | COc1cc(NC(=O)c2ccco2)c(OC)cc1NC(=O)c1cc(OC)c(OC)c(OC)c1 |
